Tested on: 361931-004-R-J1-PDC multicell spheroid viability
Assay: Anticancer human tumor 361931-004-R-J1-PDC patient-derived colon adenocarcinoma cell line growth inhibition [PI3K]
Conditions: for viability, T/C: stronger effect = lower value
Text: Combinatorial screen of targeted agents with the PI3K inhibitors inavolisib, alpelisib, duvelisib, and copanlisib in multi-cell type tumor spheroids
A high-throughput screen of multi-cell type tumor spheroids was designed to identify active combinations of targeted small molecules and PI3K pathway inhibitors. Complex spheroids include a stromal component modeled by human endothelial cells (HUVEC) and fibroblasts modeled by human mesenchymal stem cells (MSCs). The concentration ranges selected for each drug and investigational agent were based upon clinically achievable concentrations if the clinical Cmax of the agent was known.
Compounds. The drugs and investigational agents: inavolisib (NSC800729), alpelisib (NSC765974), duvelisib (NSC772469), copanlisib (NSC816437), ipatasertib (NSC767898), afuresertib (NSC778305), talazoparib (NSC767125), sapanisertib (NSC764658), selumetinib (NSC741078), tovorafenib (DAY101, NSC766906), vemurafenib (NSC761431), ravoxertinib (NSC781343), sotorasib (NSC818433), MRTX1133 (NSC 836407), abemaciclib (NSC 768073), palbociclib (NSC758247), venetoclax (NSC 766270), SY5609 (NSC837396), enzalutamide (NSC755605), and darolutamide (NSC825331), were obtained from the National Cancer Institute (NCI) Developmental Therapeutics Program Chemical Repository. The FDA-approved anticancer drug set is available from the NCI Developmental Therapeutics Program. […] The stock solutions were prepared in dimethyl sulfoxide (DMSO, Sigma-Aldrich, St. Louis, MO, cat. D2650) at 800-fold the tested concentration and stored at -70 degrees C prior to their use. All drugs and investigational agents were tested over a range starting from a high concentration at or near the clinical Cmax and decreasing in half-log increments. If the clinical Cmax for an agent had not been determined, the highest concentration tested was 10 microM.
Cell Culture. All cells were maintained in an incubator at 37 degrees C and 5% CO2 with 95% humidity. The PDC lines were cultured according to standard operating procedures established by the NCI PDMR (https://pdmr.cancer.gov/sops/default.htm). All PDCs were thawed and cultured in Matrigel-coated flasks prepared with a working solution of 1X Ham's F-12 nutrient mix, without supplementation (Invitrogen, Waltham, MA, cat. 11765054), 100 U/mL penicillin-streptomycin (Invitrogen, cat. 15140122), and 2.5% Matrigel (Corning Inc., Corning, NY, cat. 354248) for the first three passages. The 354836-022-R-J1-PDC, 475296-252-R-J1-PDC, and 997726-040-R-J2-PDC lines were cultured in 6A media, which includes advanced DMEM/F-12 (Thermo Fisher Scientific, cat. 12634028), 10 mM HEPES (Thermo Fisher Scientific, cat. 15630080), 1X GlutaMAX supplement (Thermo Fisher Scientific, cat. 35050061), 0.1 mg/mL primocin (InvivoGen, San Diego, CA, cat. ant-pm-2), 10% defined fetal bovine serum, heat inactivated (HyClone Laboratories Inc., Logan, UT, cat. SH30070.03HI), 50% L-WRN conditioned media (ATCC, cat. CRL-3276), 1.25 mM N-Acetyl-L-cysteine (Sigma-Aldrich, cat. A9165), 10 mM nicotinamide (Sigma-Aldrich, cat. N0636), 1X B-27 supplement (Thermo Fisher Scientific, cat. 17504044), 1X N-2 supplement (Thermo Fisher Scientific, cat. 17502048), and 10 microM Y-27632 dihydrochloride (Tocris Bioscience, Bristol, United Kingdom, cat. 1254). The 624824-186-R-J2-PDC line was cultured in 6C/Colon 1B media, which includes all 6A media components plus 50 ng/mL human EGF recombinant protein (Thermo Fisher Scientific, cat. PHG0311). […]
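Note: spheroids exposed to agents for seven days before readout.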

Cn1ncc(Cl)c1-c1cc(C(=O)NC(CN)Cc2cccc(F)c2)sc1Cl (stereo not drawn)
viability, T/C (compound 0.0316 µM): 94.2% [middle of 4 runs] | viability, T/C (compound 0.1 µM): 97.2% [middle of 4 runs] | viability, T/C (compound 3.16 µM): 46.3% [middle of 4 runs] | viability, T/C (compound 10 µM): 29.7% [middle of 4 runs]

CC(Nc1ccc2c(c1)OCCn1cc(N3C(=O)OCC3C(F)F)nc1-2)C(N)=O (stereo not drawn)
viability, T/C (compound 0.00316 µM): 98.9% [middle of 8 runs] | viability, T/C (compound 0.01 µM): 97.8% [middle of 8 runs] | viability, T/C (compound 0.0316 µM): 98.1% [middle of 8 runs] | viability, T/C (compound 0.1 µM): 94.3% [middle of 8 runs] | viability, T/C (compound 0.316 µM): 92.9% [middle of 8 runs] | viability, T/C (compound 1 µM): 88.1% [middle of 8 runs] | IC50 (compound alone, run of 05/08/2023): > 1 µM

CNC(=O)c1ccc(N2C(=S)N(c3ccc(C#N)c(C(F)(F)F)c3)C(=O)C2(C)C)cc1F + CC(Nc1ccc2c(c1)OCCn1cc(N3C(=O)OCC3C(F)F)nc1-2)C(N)=O
IC50 (curve of first compound, second compound 0.00316 µM): > 10 µM | IC50 (curve of first compound, second compound 0.01 µM): > 10 µM | IC50 (curve of first compound, second compound 0.0316 µM): > 10 µM | IC50 (curve of first compound, second compound 0.1 µM): > 10 µM | IC50 (curve of first compound, second compound 0.316 µM): > 10 µM | IC50 (curve of first compound, second compound 1 µM): > 10 µM | viability, T/C (second compound 0.00316 µM, first compound 0.0316 µM): 110% | viability, T/C (second compound 0.00316 µM, first compound 0.1 µM): 101% | viability, T/C (second compound 0.00316 µM, first compound 0.316 µM): 101% | viability, T/C (second compound 0.00316 µM, first compound 1 µM): 92.8% | viability, T/C (second compound 0.00316 µM, first compound 3.16 µM): 110% | viability, T/C (second compound 0.00316 µM, first compound 10 µM): 93.7% | viability, T/C (second compound 0.01 µM, first compound 0.0316 µM): 109% | viability, T/C (second compound 0.01 µM, first compound 0.1 µM): 102% | viability, T/C (second compound 0.01 µM, first compound 0.316 µM): 85.2% | viability, T/C (second compound 0.01 µM, first compound 1 µM): 104% | viability, T/C (second compound 0.01 µM, first compound 3.16 µM): 103% | viability, T/C (second compound 0.01 µM, first compound 10 µM): 90.4% | viability, T/C (second compound 0.0316 µM, first compound 0.0316 µM): 107% | viability, T/C (second compound 0.0316 µM, first compound 0.1 µM): 103% | viability, T/C (second compound 0.0316 µM, first compound 0.316 µM): 105% | viability, T/C (second compound 0.0316 µM, first compound 1 µM): 102% | viability, T/C (second compound 0.0316 µM, first compound 3.16 µM): 105% | viability, T/C (second compound 0.0316 µM, first compound 10 µM): 82.4% | viability, T/C (second compound 0.1 µM, first compound 0.0316 µM): 94.6% | viability, T/C (second compound 0.1 µM, first compound 0.1 µM): 99.1% | viability, T/C (second compound 0.1 µM, first compound 0.316 µM): 93.1% | viability, T/C (second compound 0.1 µM, first compound 1 µM): 100% | viability, T/C (second compound 0.1 µM, first compound 3.16 µM): 97.4% | viability, T/C (second compound 0.1 µM, first compound 10 µM): 86.4% | viability, T/C (second compound 0.316 µM, first compound 0.0316 µM): 88.1% | viability, T/C (second compound 0.316 µM, first compound 0.1 µM): 94% | viability, T/C (second compound 0.316 µM, first compound 0.316 µM): 88.6% | viability, T/C (second compound 0.316 µM, first compound 1 µM): 87.9% | viability, T/C (second compound 0.316 µM, first compound 3.16 µM): 87.5% | viability, T/C (second compound 0.316 µM, first compound 10 µM): 76% | viability, T/C (second compound 1 µM, first compound 0.0316 µM): 75.9% | viability, T/C (second compound 1 µM, first compound 0.1 µM): 82.1% | viability, T/C (second compound 1 µM, first compound 0.316 µM): 79.3% | viability, T/C (second compound 1 µM, first compound 1 µM): 78% | viability, T/C (second compound 1 µM, first compound 3.16 µM): 76.1% | viability, T/C (second compound 1 µM, first compound 10 µM): 79.6%
